Reference: paper PMC10064984, “Anti-cyclooxygenase, anti-glycation, and anti-skin aging effect of Dendrobium officinale flowers’ aqueous extract and its phytochemical validation in aging” (Frontiers in Immunology, 2023)
“And” between values parts separate entries of the source, which are not always exact repeats. Equal entries are not always repeated. Where two headings read alike, the source gives them in different places.

Key:
Format in all cases: biochemical
[1] = ABTS·+ decolourisation capacity; settings: for ABTS scavenging rate: 0.5mM series, replicate wells, listed as T17; for IC50: mean ± SD, n = 3
Procedure: Fast colourimetric methods were slightly modified for the in vitro assessment of DPPH· scavenging ([19]), ABTS·+ decolourisation capacity ([20]), and total antioxidant capacity of FRAP ([21]). The stock solutions of derivatisation reagents were diluted as follows before measurement: DPPH was diluted with absolute ethanol until the absorbance was 0.8 ± 0.05 at λ = 517 nm. ABTS working solution was prepared with phosphate buffer (0.2 M, pH 7.4) to display absorbance of 0.8 ± 0.05 at λ = 729 nm, based on a previous study ([22]). The FRAP solution was prepared according to the instructions of the FRAP kit. Absorbances were measured using an automatic microplate reader (Molecular Group Ltd., USA), and all analyses were performed using 96-well plates. All measurements were performed in triplicate, and Trolox was used as a positive control.
For ABTS·+ decolourisation capacity, 100 μl of ABTS working solution was mixed with 200 μl of sample solution, and the absorbance was recorded after 10 min at 729 nm. Phosphate buffer (0.2 M, pH 7.4) was used as a negative control.
DPPH· and ABTS·+ radical scavenging activities of the tested sample were both calculated using the following formula:
% inhibition = (A control − A sample)/A control × 100
Where A control and A sample represent the absorbance of the control and test samples, respectively. The IC50 was calculated graphically from the dose-inhibition curves.

COX-2 = biological target: T1, COX-2 (Homo sapiens, UniProt P35354); experiment: Anti-COX-2 assay (COX-2 Inhibitor Screening Kit)
T1 construct: purchased Beyotime S0168
T1 sequence (P35354 18-604): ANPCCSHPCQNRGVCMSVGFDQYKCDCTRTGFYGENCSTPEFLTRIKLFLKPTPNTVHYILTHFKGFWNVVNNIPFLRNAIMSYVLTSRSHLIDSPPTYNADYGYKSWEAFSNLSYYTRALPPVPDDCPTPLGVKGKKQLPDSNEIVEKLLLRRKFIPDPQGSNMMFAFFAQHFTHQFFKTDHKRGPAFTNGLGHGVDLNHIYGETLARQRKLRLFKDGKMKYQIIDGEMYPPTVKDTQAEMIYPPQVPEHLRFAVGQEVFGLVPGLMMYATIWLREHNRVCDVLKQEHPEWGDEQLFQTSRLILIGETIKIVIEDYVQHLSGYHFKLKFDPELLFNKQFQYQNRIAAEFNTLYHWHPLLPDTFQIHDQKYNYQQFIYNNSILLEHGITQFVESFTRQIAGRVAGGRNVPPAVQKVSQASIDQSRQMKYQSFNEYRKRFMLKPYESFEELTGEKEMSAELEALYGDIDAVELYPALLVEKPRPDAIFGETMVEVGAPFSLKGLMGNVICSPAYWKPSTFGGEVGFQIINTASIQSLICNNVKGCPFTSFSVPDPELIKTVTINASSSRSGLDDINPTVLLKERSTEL

DPPH· scavenging = settings: mean ± SD, n = 3
[2] = FRAP total antioxidant capacity; settings: lower part of sheet (compound series);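 note: colourimetric FRAP kit assay read as absorbance in 96-well plates, values as mM FeSO4 via standard curve, EC1 being sample concentration matching 1.0 mmol/L FeSO4, Trolox positive control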
[3] = Fluorescent AGEs formation in a BSA-fructose/glucose system; settings: for IC50: mean ± SD, n = 3, read-out: BSA-glycation IC50; for inhibition of fluorescent AGEs formation (BSA-抗糖化), single replicate: individual replicate; for inhibition of fluorescent AGEs formation (BSA-抗糖化), 平均 (mean): mean of 3 replicates
Procedure: Glycated protein was prepared in vitro by incubating BSA in the presence of D-glucose (GLC) and D-fructose (FRC). The DOF extract and specific standards were dissolved in DMSO:water (1:4). […] The assay was performed in triplicate, and AG was used as a positive control. The percentage inhibition of fluorescent AGE formation was calculated using the following equation: […] Where IF sample is fluorescence intensity in the presence of samples and BSA, IF sample control is fluorescence intensity in the presence of samples without BSA, IF control is fluorescence intensity without samples, and IF blank control is fluorescence intensity without samples and BSA.

Compound: O=c1cc(-c2ccc(O)c(O)c2)oc2cc(O)c(C3OC(CO)C(O)C(O)C3O)c(O)c12 [compound 18, Luteolin-6-C-β-D-glucoside]
- ABTS scavenging rate ([1]; concentration 7.8125 (unit not given)): 55.37% and 55.07% and 56.44%
- ABTS scavenging rate ([1]; concentration 15.625 (unit not given)): 79.33% and 79.42% (2×)
- ABTS scavenging rate ([1]; concentration 31.25 (unit not given)): 99.48% (2×) and 99.43%
- ABTS scavenging rate ([1]; concentration 62.5 (unit not given)): 99.27% and 99.11% and 99.08%
- ABTS scavenging rate ([1]; concentration 125 (unit not given)): 99.06% and 98.78% and 98.90%
- ABTS scavenging rate ([1]; concentration 250 (unit not given)): 98.95% and 99.14% and 99.11%
- ABTS scavenging rate ([1]; concentration 500 (unit not given)): 99.30% and 99.22% and 99.17%
- IC50 [1]: 7.1 ± 0.1 µM
- COX-2 inhibition (in words) (COX-2): great COX-2 inhibition
- inhibition at 3.125 µM (COX-2; 3.125 μM, single replicates): 16.9%
- COX-2 inhibition (COX-2; 3.125 μM, single replicates, listed as T17, 3.125 µM): 26.59% and 29.93%
- COX-2 inhibition (COX-2; 6.25 μM, single replicates, listed as T17, 6.25 µM): 36.73% and 36.77% and 59.48%
- inhibition at 12.5 µM (COX-2; 12.5 μM, single replicates): 65.1%
- COX-2 inhibition (COX-2; 12.5 μM, single replicates, listed as T17, 12.5 µM): 69.47% and 74.84%
- inhibition at 25 µM (COX-2; 25 μM, single replicates): 74.8%
- COX-2 inhibition (COX-2; 25 μM, single replicates, listed as T17, 25 µM): 75.14% and 79.85%
- inhibition at 50 µM (COX-2; 50 μM, single replicates): 78.4%
- COX-2 inhibition (COX-2; 50 μM, single replicates, listed as T17, 50 µM): 79.38% and 83.25%
- inhibition at 100 µM (COX-2; 100 μM, single replicates): 84.8%
- COX-2 inhibition (COX-2; 100 μM, single replicates, listed as T17, 100 µM): 81.46% and 83.62%
- inhibition at 200 µM (COX-2; 200 μM, single replicates): 90.6%
- COX-2 inhibition (COX-2; 200 μM, single replicates, listed as T17, 200 µM): 89.90% and 90.15%
- IC50 (COX-2; mean ± SD, n = 3, nd, not detected, read-out: COX-2 IC50): 7.9 ± 2.4 µM
- IC50 (COX-2; supplement sheet COX, read-out: COX-2 IC50, single replicate): 10 µM and 8.56 µM and 5.24 µM
- IC50 (DPPH· scavenging): 102 ± 6.2 µM
- FRAP EC1 [2]: 506.6 ± 78.3 µM
- IC50 [3]: 317 ± 15.6 µM

Compound: O=c1cc(-c2ccc(O)cc2)oc2c(C3OCC(O)C(O)C3O)c(O)c(C3OCC(O)C(O)C3O)c(O)c12 [compound 26, Apigenin-6-C-α-L-arabinoside-8-C-β-D-xyloside]
- IC50 [1]: 80.36 ± 0.77 µM
- COX-2 inhibition (in words) (COX-2): no inhibitory effects
- IC50 (DPPH· scavenging): > 5000 µM
- FRAP EC1 [2]: >5000 µM
- inhibition of fluorescent AGEs formation (BSA-抗糖化), single replicate ([3]; 15.625 µM, listed as T10, 15.625 µM): -0.15% and 0.19% and 0.09%
- inhibition of fluorescent AGEs formation (BSA-抗糖化), 平均 (mean) ([3]; 15.625 µM): 0.045%
- inhibition of fluorescent AGEs formation (BSA-抗糖化), single replicate ([3]; 31.25 µM, listed as T10, 31.25 µM): 6.49% and 8.31% and 6.26%
- inhibition of fluorescent AGEs formation (BSA-抗糖化), 平均 (mean) ([3]; 31.25 µM): 7.02%
- inhibition of fluorescent AGEs formation (BSA-抗糖化), single replicate ([3]; 62.5 µM, listed as T10, 62.5 µM): 15.98% and 16.92% and 15.72%
- inhibition of fluorescent AGEs formation (BSA-抗糖化), 平均 (mean) ([3]; 62.5 µM): 16.21%
- inhibition of fluorescent AGEs formation (BSA-抗糖化), single replicate ([3]; 125 µM, listed as T10, 125 µM): 27.64% and 28.36% and 29.90%
- inhibition of fluorescent AGEs formation (BSA-抗糖化), 平均 (mean) ([3]; 125 µM): 28.63%
- inhibition of fluorescent AGEs formation (BSA-抗糖化), single replicate ([3]; 250 µM, listed as T10, 250 µM): 48.76% and 48.06% and 47.15%
- inhibition of fluorescent AGEs formation (BSA-抗糖化), 平均 (mean) ([3]; 250 µM): 47.99%
- inhibition of fluorescent AGEs formation (BSA-抗糖化), single replicate ([3]; 500 µM, listed as T10, 500 µM): 67.27% and 67.99% and 65.66%
- inhibition of fluorescent AGEs formation (BSA-抗糖化), 平均 (mean) ([3]; 500 µM): 66.98%
- inhibition of fluorescent AGEs formation (BSA-抗糖化), single replicate ([3]; 1000 µM, listed as T10, 1000 µM): 82.36% and 81.32% and 81.69%
- inhibition of fluorescent AGEs formation (BSA-抗糖化), 平均 (mean) ([3]; 1000 µM): 81.79%
- inhibition of fluorescent AGEs formation (BSA-抗糖化), single replicate ([3]; 2000 µM, listed as T10, 2000 µM): 90.52% and 90.97% and 89.78%
- inhibition of fluorescent AGEs formation (BSA-抗糖化), 平均 (mean) ([3]; 2000 µM): 90.42%
- inhibition of fluorescent AGEs formation (BSA-抗糖化), single replicate ([3]; 4000 µM (series head 'T9 4000µM', 2-fold dilutions), listed as T10): 95.10% and 95.64% and 95.09%
- inhibition of fluorescent AGEs formation (BSA-抗糖化), 平均 (mean) ([3]; 4000 µM): 95.27%
- IC50 [3]: 273 ± 4.7 µM
